Experimental data published in publication PMC8260761, “A bacteriocin-based treatment option for Staphylococcus haemolyticus biofilms” (Scientific Reports, 2021).
Like-named read-outs stand apart in the source and are kept apart here. Where no end group is shown, it is not given here.

Assays:
[1] = system: clinical and commensial S. haemolyticus isolates; assay type: cell-based, Staphylococcus haemolyticus; details: 5 h
Procedure: (§1) A semi-quantitative spot-on-lawn inhibitory assay was performed on 51 bacterial indicator strains (Table S1) to determine the bacteriocins inhibition spectra. Overnight cultures were diluted 1:100 in BHI soft agar and distributed on BHI agar plates. Once solidified, bacteriocins with various concentrations were applied on designated spots. The plates were incubated at appropriate temperature O/N and inhibition zones were measured the following day. To determine minimal inhibitory concentration (MIC50) of H1 against clinical S. haemolyticus isolates (Table S2), as well as strains heterologously expressing RseP (Table S4), the microtiterplate antimicrobial assay was performed as previously described[41],[79]. MIC50 was defined as the minimal bacteriocin concentration needs to inhibit the growth of a bacterial strain by at least 50%.

[2] = system: L. plantarum WCFS1 strains (with or without S. haemolyticus RseP); assay type: cell-based, Lactobacillus plantarum
Procedure: as §1
rseP (Uniprot: Q4L5W4) derived from S. haemolyticus 7067_4_21 was heterologously expressed in the naturally H1-resistant L. plantarum WCFS1[36] using the vector pSIP expression system[84],[85]. First, pLp1261_InvS, a pSIP401 derivative[84],[86], was linearized using FastDigest Restrictiction Enzymes NdeI and Acc65I (ThermoFisher Scientific) to isolate the vector part. Second, rseP was amplified by PCR using specially designed In-Fusion Primes (Table S6), giving amplicons with complementary ends to the linearized vector. The In-Fusion HD cloning Kit (Takara Bio) was used to fuse rseP into the linearized vector, yielding pSIP401_SHRseP. The plasmid was subsequently transformed to E.coli TOP10 (ThermoFischer Scientific). Plasmid DNA from E. coli was isolated using NucleoSpin Plasmid Kit (Macherey–Nagel). The DNA sequence of all PCR amplified fragments was verified by sequencing at Eurofins GATC, Germany, and before being electroporated into L. plantarum WCSF1 following the procedure described by Aukrust and Blom[87].

[3] = system: planktonic S. haemolyticus; assay type: cell-based, Staphylococcus haemolyticus
Procedure: Synergistic interactions between antimicrobials were determined using the fractional inhibition concentration (FIC) as previously described. The FIC values were determined using a mirotiterplate checkerboard assay. Briefly, antimirobial A was applied in wells A1–H1 then diluted two-fold in wells 2–12. In a second microtiter plate, antimicrobial B was applied in wells A1–A12, then diluted two folds in wells B–H. Fifty μl of the serial diluted antimirobial A was transferred to the wells of a third microtiter plate, except for wells H1–H12. Similarly, 50 μl of the serial diluted antimicrobial B was transferred to the same microtiter plate, except for wells A1–A12. Wells H1-12 and wells A1-12 contained only one of the antimicrobials and was used to estimate the MIC value of the pure substance. After combining the antimicrobials, 100 μl of a 1:25 diluted O/N of S. haemolyticus was transferred to each well of the third microplate, while 50 μl of medium was added to wells H1-12 and A1-12. […] FIC values were calculated as follows: FIC = FICa + FICb + FICc, where the FICa means MIC of A in combination/MIC of A alone, FICb means MIC of B in combination/MIC of B, and FICc means MIC of C in combination/MIC of C alone. Effects were considered as synergistic if FIC was ≤ 0.5 for two components mixture[81] and ≤ 0.75 for three components mixture.

[4] = system: Staphylococcus haemolyticus strains; assay: Spot-on-lawn inhibition assay; assay type: cell-based; details: six S. haemolyticus strains 4068–4073; 0.04, 0.2 and 1.0 mg/ml, 5 µl spotted
Procedure: as §1

[5] = S. haemolyticus 4068, planktonic cells, 5 h exposure
[6] = S. haemolyticus 4068, planktonic cells, 24 h exposure
[7] = S. haemolyticus 4068, planktonic cells, 48 h exposure
[8] = S. haemolyticus 4069, planktonic cells, 5 h exposure
[9] = S. haemolyticus 4069, planktonic cells, 24 h exposure
[10] = S. haemolyticus 4069, planktonic cells, 48 h exposure
[11] = S. haemolyticus 4070, planktonic cells, 5 h exposure
[12] = S. haemolyticus 4070, planktonic cells, 24 h exposure
[13] = S. haemolyticus 4070, planktonic cells, 48 h exposure
[14] = S. haemolyticus 4071, planktonic cells, 5 h exposure
[15] = S. haemolyticus 4071, planktonic cells, 24 h exposure
[16] = S. haemolyticus 4071, planktonic cells, 48 h exposure
[17] = S. haemolyticus 4072, planktonic cells, 5 h exposure
[18] = S. haemolyticus 4072, planktonic cells, 24 h exposure
[19] = S. haemolyticus 4072, planktonic cells, 48 h exposure
[20] = S. haemolyticus 4073, planktonic cells, 5 h exposure
[21] = S. haemolyticus 4073, planktonic cells, 24 h exposure
[22] = S. haemolyticus 4073, planktonic cells, 48 h exposure

Substance | Inhibition zones at three concentrations [4] | MIC, individual component [3, 5] [µg/mL] | MIC, individual component [3, 6] [µg/mL] | MIC, individual component [3, 7] [µg/mL] | MIC, individual component [3, 8] [µg/mL] | MIC, individual component [3, 9] [µg/mL] | MIC, individual component [3, 10] [µg/mL] | MIC, individual component [3, 11] [µg/mL] | MIC, individual component [3, 12] [µg/mL] | MIC, individual component [3, 13] [µg/mL] | MIC, individual component [3, 14] [µg/mL] | MIC, individual component [3, 15] [µg/mL] | MIC, individual component [3, 16] [µg/mL] | MIC, individual component [3, 17] [µg/mL] | MIC, individual component [3, 18] [µg/mL] | MIC, individual component [3, 19] [µg/mL] | MIC, individual component [3, 20] [µg/mL] | MIC, individual component [3, 21] [µg/mL] | MIC, individual component [3, 22] [µg/mL] | also measured
MKFKFNPTGTIVKKLTQYEINWYKQQYGRYPWERPVA [H1] | – | – | – | – | – | – | – | – | – | – | – | – | – | – | – | – | – | – | – | MIC50 against the different S. haemolyticus strains [1]: 100 to 780 µg/mL; Minimal inhibitory concentration (MIC) ([2]; L. plantarum WCFS1): > 50 µg/mL; Minimal inhibitory concentration (MIC) ([2]; L. plantarum WCFS1/pEV, expressing empty vector): > 50 µg/mL; Minimal inhibitory concentration (MIC) ([2]; L. plantarum WCFS1/pSIP401_SHRseP, expressing RseP from S. haemolyticus 7067_4_21): 0.39 µg/mL; MIC50 over the tested strains ([3]; planktonic, 5 h): 0.78 µg/mL; MIC, individual component ([3]; planktonic, 24 h): 0.78 µg/mL
SCTTCVCTCSCCTT [MP1, micrococcin P1] | clear inhibition zones at all three concentrations | 0.02 | 0.023 | 0.078 | 0.15 | > 10 | > 10 | 0.02 | 0.33 | 0.13 | 0.043 | > 10 | > 10 | 0.039 | > 10 | 0.63 | 0.022 | 0.072 | 0.14 | –
garvicin KS [GarKS] | some inhibition was seen only at the highest concentration | 6.5 | 24 | 25 | 3.3 | 13 | 26 | 12 | 48 | 51 | 12.5 | 51 | 100 | 23.6 | 49 | 52 | 12.5 | 51 | 51 | –
